Assay results: the NIST ThermoML archive (doi:10.1016/j.fluid.2008.02.008)
Numbers after ± are expanded uncertainties.

Assays:
[1] = refractive index (Na D-line) (dimensionless); settings: 298.15 K; 101.33 kPa; Liquid; Standard Abbe refractometry
[2] = 298.15 K, 101.33 kPa, Liquid; for mass density: Pycnometric method; for speed of sound: Sing-around technique in a fixed-path interferometer

Structure (SMILES) | refractive index [1] | mass density [2] [kg/m3] | speed of sound [2] [m/s]
O=C1CCCN1C1CCCCC1 [N-cyclohexylpyrrolidinone] | 1.4975 ± 0.00082 | 1025.56 ± 1.7 | 1555.7 ± 2.3
CC(C)CC(C)(C)C [2,2,4-trimethylpentane] | 1.38917 ± 0.00073 | 687.817 ± 0.62 | 1082.6 ± 1
CCCCCC [hexane] | 1.37237 ± 0.00075 | 654.961 ± 0.62 | 1077.6 ± 1.3
C1CCCCC1 [cyclohexane] | 1.42378 ± 0.00072 | 773.948 ± 0.69 | 1254.9 ± 0.97
CN1CCCC1=O [N-methylpyrrolidone] | 1.46876 ± 0.00075 | 1027.88 ± 1.1 | 1545 ± 1.5
CCCC(C)C [2-methylpentane] | 1.36893 ± 0.00075 | 648.614 ± 0.62 | 1082.6 ± 1.3
CCCCCCCC [octane] | 1.39538 ± 0.00073 | 698.638 ± 0.63 | 1170.4 ± 1.1
C1CCCCCCC1 [cyclooctane] | 1.45624 ± 0.00075 | 830.967 ± 0.82 | 1387.8 ± 1.4

Next, values leading:

refractive index [1] | mass density [2] [kg/m3] | speed of sound [2] [m/s] | Structure (SMILES)
1.37275 ± 0.00094 | 658.562 ± 1.3 | 1047.1 ± 3.1 | CC(C)C(C)C [2,3-dimethylbutane]
1.36608 ± 0.00075 | 644.43 ± 0.61 | 999.69 ± 1.3 | CCC(C)(C)C [2,2-dimethylbutane]
1.4099 ± 0.00075 | 726.176 ± 0.7 | 1232.5 ± 1.4 | CCCCCCCCCC [decane]
1.3325 ± 0.00075 | – | – | O [water]
1.37399 ± 0.00075 | 659.806 ± 0.63 | 1072.1 ± 1.3 | CCC(C)CC [3-methylpentane]
